What was measured:
human UDG = test system: human UDG; set-up: method as in PMID 8391260; settings: purified human HeLa UDG; cited from earlier work
recombinant PfUDG = recombinant PfUDG (Plasmodium falciparum, UniProt Q8ILU6, P157T); assay: Inhibition of recombinant PfUDG activity (32P-labelled oligo-U glycosylase assay); assay type: biochemical; settings: for Inhibitory effect of UGI on recombinant PfUDG: 1:1 molar ratio of PfUDG and UGI
Procedure: (§1) The UDG activity assay (20 μl) consisted of standard reaction buffer containing 20 mM Tris–HCl pH 8.0, 1 mM DTT, 1 mM EDTA, 50 mM NaCl, 100 μg/ml BSA, 10 pmol ^32P-labelled oligo-U, and 20 ng of PfUDG at 37°C for 20 min. The glycosylase activity was stopped by heating at 100°C for 1 min, the resulting apurinic/apyrimidinic site (AP site) was incised by hot alkaline treatment with 0.1 M NaOH (final concentration) at 95°C for 10 min, and the reaction was neutralized with 0.1 M HCl (final concentration). The AP lyase activity assay of PfUDG was examined under the same condition as UDG activity assay except without hot alkaline treatment. Reaction products were analysed on 8 M urea-16% denaturing PAGE and exposed to X-ray film for autoradiography for visualization. The radioactive intensity of sliced substrate and product bands from the gel were measured in a 1450 MicroBeta® Trilux Liquid Scintillation Counter (Perkin Elmer) as counts per minute (cpm). The amounts of substrate and product (pmol) were determined from radioactive intensity. One unit of activity is defined as the amount of PfUDG required for releasing 1 pmol of uracil in 1 min at 37°C in standard reaction buffer (20 mM Tris–HCl pH 8.0, 50 mM NaCl, 1 mM EDTA, 1 mM DTT, and 100 μg/ml BSA) with ^32P-labelled single stranded oligo-U substrate.
Two types of UDG inhibitors, UGI protein and synthetic uracil-derived compounds, were tested for their inhibitory effects on PfUDG. UGI protein of B. subtilis bacteriophage PBS1 (New England BioLabs) was used against native and recombinant PfUDG with 10 pmol ^32P-labelled single stranded oligo-U in the standard reaction buffer at 37°C for 20 min. The synthetic uracil-derived compounds were also used at various concentrations (5–640 μM) with 20 ng of recombinant PfUDG and 10 pmol ^32P-labelled single stranded oligo-U in the standard reaction buffer at 37°C for 20 min. The same 0.4% (v/v final concentration) of DMSO was used as solvent control to determine its effects on enzyme activity. The dose–response curves of relative activities of PfUDG and various compound concentrations were generated, and half-maximal inhibitory concentration (IC50), the concentration of compound to inhibit enzyme activity by 50%, was obtained using SigmaPlot 12.0.

P. falciparum K1 strain = assay: Inhibition of parasite growth in vitro, SYBR Green I based assay; assay type: cell-based; settings: Plasmodium falciparum, synchronized ring stage K1 strain
Procedure: The synchronized ring stage of P. falciparum K1 strain was prepared from mixed stage parasite culture by 5% D-sorbitol treatment. The ring stage parasite was then mixed with culture medium containing RPMI 1640 supplemented with 10% human serum. Various concentrations of each uracil-derived compound were tested at 2-fold serial dilutions in triplicate. Their inhibitory effects on parasite growth were determined by SYBR Green I based assay. The fluorescent intensity was measured by Varioskan Flash Multimode Reader (Thermo Scientific, Vantaa, Finland) with excitation and emission wavelengths of 485 and 535 nm, respectively. The percentage of fluorescent intensity at each compound concentration compared with negative control was indicative of the parasite growth. The dose–response curves of fluorescent intensity and compound concentrations were generated, and IC50, the concentration of compound to inhibit parasite growth by 50%, was obtained using SigmaPlot 12.0.

[1] = Cytotoxicity test, MTT colorimetric assay; assay type: cell-based; settings: human, HepG2 cells
Procedure: The uracil-derived compounds showing inhibitory effects on PfUDG were assayed for cytotoxicity to human hepatocyte carcinoma cell line ATCC HB 8665 (HepG2) by in vitro cytotoxicity test. The methylthiazol tetrazolium (MTT)-dye based colorimetric microtitration assay was used for detecting cell survival based on the metabolism of tetrazolium to formazan by viable cells. The OD of formazan was measured by a Molecular Devices Microplate Reader (Molecular Devices, CA, USA) at a wavelength of 570 nm. The OD570 represented the cell survival, and the percentage of cell survival at each compound concentration was determined by comparing with the OD570 of negative control lacking compounds. The dose–response curves of % cell survival, and compound concentrations and IC50 were obtained. IC50 representing the concentration of compounds providing 50% cell survival indicated the cytotoxicity of compounds.

HSV-1 UDG = test system: HSV-1 UDG; set-up: method as in PMID 8391260; settings: HSV-1 UDG purified from HSV-1-infected HeLa cells; cited from earlier work
native PfUDG = assay: Inhibition of native PfUDG activity by UGI (32P-labelled oligo-U glycosylase assay); assay type: biochemical, Plasmodium falciparum; settings: 1:1 molar ratio of PfUDG and UGI
Procedure: as §1, with “substrate. […]” for “substrate.”

[2] = listed as uracil glycosylase inhibitor protein

Sequence of recombinant PfUDG (Q8ILU6 whole entry P157T): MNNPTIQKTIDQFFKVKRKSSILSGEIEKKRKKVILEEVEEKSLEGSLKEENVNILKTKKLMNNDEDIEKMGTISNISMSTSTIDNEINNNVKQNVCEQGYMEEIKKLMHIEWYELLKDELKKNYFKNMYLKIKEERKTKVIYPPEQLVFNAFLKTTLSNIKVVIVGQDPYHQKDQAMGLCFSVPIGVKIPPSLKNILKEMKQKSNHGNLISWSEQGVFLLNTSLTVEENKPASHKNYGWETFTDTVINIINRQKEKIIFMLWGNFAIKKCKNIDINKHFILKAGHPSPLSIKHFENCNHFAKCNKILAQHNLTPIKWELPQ

Molecule | IC50 (recombinant PfUDG) | IC50 (P. falciparum K1 strain) | IC50 (HSV-1 UDG) | other results
CCCCCCCCc1ccc(Nc2cc(=O)[nH]c(=O)[nH]2)cc1 [6-(4-n-octylanilino)uracil, 6-(4-n-Octylanilino)uracil] |  |  |  | IC50 (human UDG): > 300 µM
O=c1cc(NNc2ccccc2)[nH]c(=O)[nH]1 [compound 2, 6-(Phenylhydrazino)uracil] | 77.5 µM | 12.8 µM |  | IC50 [1]: 27.5 ± 4.58 µM
CCCCCCCc1ccc(Nc2cc(=O)[nH]c(=O)[nH]2)cc1 [compound 3, 6-(p-n-Heptylanilino)uracil] | > 400 µM | 5 µM | 20 µM | 
Cc1ccc(Nc2cc(=O)[nH]c(=O)[nH]2)cc1 [compound 4, 6-(4-Methylanilino)uracil] | > 400 µM | 7.1 µM |  | 
CCCc1ccc(Nc2cc(=O)[nH]c(=O)[nH]2)cc1 [compound 5, 6-(p-n-Propylanilino)uracil] | > 400 µM | 7.9 µM |  | 
O=c1cc[nH]c(=O)[nH]1 [compound 6, Uracil] | > 400 µM | 10 µM |  | 
CCCCc1ccc(Nc2cc(=O)[nH]c(=O)[nH]2)cc1 [compound 7, 6-(p-n-Butylanilino)uracil] | > 400 µM | 10 µM | 150 µM | 
CCc1cc(Nc2cc(=O)n(CCCCO)c(=O)[nH]2)ccc1C [compound 8, 3-(4-Hydroxybutyl)-6-(3-ethyl-4-methylanilino)uracil] | > 400 µM | 10.2 µM |  | 
CCCCCc1ccc(Nc2cc(=O)[nH]c(=O)[nH]2)cc1 [compound 9, 6-(p-n-Pentylanilino)uracil] | > 400 µM | 10.5 µM | 30 µM | 
CC(C)CCc1ccc(Nc2cc(=O)[nH]c(=O)[nH]2)cc1 [compound 10, 6-(p-i-Pentylanilino)uracil] | > 400 µM | 11 µM | 140 µM | 
CC(C)c1ccc(Nc2cc(O)nc(O)n2)cc1 [compound 11, 6-(p-i-Propylanilino)uracil] | > 400 µM | 12.6 µM |  | 
CC(C)Cc1ccc(Nc2cc(=O)[nH]c(=O)[nH]2)cc1 [compound 12, 6-(p-i-Butylanilino)uracil] | > 400 µM | 16.5 µM |  | 
UGI: UGI protein of B. subtilis bacteriophage PBS1 (New England BioLabs), a well-known UDG inhibitor (protein, UniProt P14739 1-84, looked up) Uracil-DNA glycosylase …: MTNLSDIIEKETGKQLVIQESILMLPEEVEEVIGNKPESDILVHTAYDESTDENVMLLTSDAPEYKPWALVIQDSNGENKIKML |  |  |  | Inhibitory effect of UGI on recombinant PfUDG (recombinant PfUDG): completely inhibited; Inhibitory effect of UGI on recombinant PfUDG (recombinant PfUDG; [2]): inhibited; Inhibitory effect of UGI on native PfUDG (native PfUDG): completely inhibited; Inhibitory effect of UGI on native PfUDG (native PfUDG; [2]): inhibited

— PMC3997752, “Molecular characterization of Plasmodium falciparum uracil-DNA glycosylase and its potential as a new anti-malarial drug target” (Malaria Journal, 2014)
